Assay results reported in patent US6830916B2, “Sphingosine kinase, cloning, expression and methods of use” (priority 2000, dated 2004).

Tests used:
hSPHK1 [1] = biological target: T1, hSPHK1 (Homo sapiens, UniProt Q9NYA1); test: SPHK-dependent phosphorylation of sphingosine analogs and other lipids (substrate specificity of hSPHK1); type: biochemical; conditions: lipid 50 μM, lysates of HEK293 cells transfected with hSPHK1 as enzyme source
T1 construct: to obtain the full-length cDNA of hSPHK1; expressed in transfected cells; host or cells: HEK293
Description: (§1) Cytosolic sphingosine kinase activity was determined with 50 μM sphingosine dissolved in Triton X-100 (final concentration 0.25%) and […] (10 μCi, 1 mM) containing MgCl2 (10 mM). In some studies, sphingosine was added as a complex with bovine serum albumin (BSA). Specific activity was expressed as pmol SPP formed per minute per mg protein.
(§2) HEK293 cells were transfected with hSPHK1 and SPHK-dependent phosphorylation of various sphingosine analogs or other lipids (50 μM) was measured using cell lysates as enzyme source. DAG, diacylglycerol; PI, phosphatidylinositol; C2-CER, N-acetyl—sphingosine. […] SPHK activity in HEK293 cell lysates 24 h after transfection with hSPHK1 was measured with 10 μM […] in the absence or presence of 20 μM and 40 μM DMS or DHS. Data are means±SD and are expressed as percent inhibition.

hSPHK1 [2] = biological target: T1, hSPHK1; test: Inhibition of SPHK activity in lysates of HEK293 cells transfected with hSPHK1; type: biochemical; conditions: for inhibition of hSPHK1: 20 μM and 40 μM inhibitor, 10 μM SPP (so in the source), HEK293 lysates 24 h after transfection
Description: as §1, §2

mouse melanoma B10 cells = conditions: low nanomolar concentrations of SPP; also SPP immobilized on glass beads; cited from earlier work
c-myc-SPHK = test: Cytosolic c-myc-SPHK activity in transfected NIH 3T3 fibroblasts; type: cell-based
Description: as §1

[3] = substrate: CCCCCCCCCCCCC/C=C/[C@@H](O)[C@@H](N)CO; test: SPHK-dependent phosphorylation of sphingosine analogs and other lipids (substrate specificity of hSPHK1); type: biochemical, human; conditions: other: D-erythro-sphingosine as substrate
Description: as §1, §2

For `CCCCCCCCCCCCC/C=C/[C@@H](O)[C@H](CO)NC(C)=O` [C2-ceramide, N-acetyl—sphingosine], the “substrate of hSPHK1 (SPHK-dependent phosphorylation)” value (shortened to “substrate of hSPHK1”) (hSPHK1 [1]) was “not substrates”.

In the case of `CCCCCCCCCCCCC/C=C/[C@@H](O)[C@@H](N)CO` [D-erythro-sphingosine], the “substrate of hSPHK1” value (hSPHK1 [1]) is reported as “more efficiently phosphorylated than sphingamine” and the “substrate of hSPHK1” value (hSPHK1 [1]; listed as D-(+)-erythro-trans-isomer of sphingosine) is reported as “best substrates”.

In the case of `CCCCCCCCCCCCCCC[C@H](O)[C@@H](N)CO` [DHS, D,L-threo-dihydrosphingosine], the “substrate of hSPHK1” value (hSPHK1 [1]) is reported as “not substrates”, the “inhibition of hSPHK1” value (hSPHK1 [2]) is reported as “inhibited hSPHK1” and the “inhibition of hSPHK1” value (hSPHK1 [2]; listed as D,L-threo-dihydro-sphingosine) is reported as “inhibitors of hSPHK1”. For the same molecule, the “relative inhibitory potency on hSPHK1” value (hSPHK1 [2]; DHS compared with DMS) was “slightly more potent thank DMS”.

For `CCCCCCCCCCCCC/C=C/[C@@H](O)[C@@H](N)COP(=O)(O)O` [SPP, Sphingosine-1-phosphate], the “effect on cell motility” value (mouse melanoma B10 cells) is listed as “inhibited the motility”.

In the case of `CCCCCCCCCCCCCCC[C@H](O)[C@H](N)CO` [erythrodihydrosphingosine], the “substrate of hSPHK1” value (hSPHK1 [1]) is reported as “best substrates”.

With N,N-dimethylsphingosine [DMS] the “inhibition of hSPHK1” value (hSPHK1 [2]) was “inhibitors of hSPHK1” and the “inhibition of hSPHK1” value (hSPHK1 [2]; listed as CMS) was “inhibited hSPHK1”.

In the case of PDGF, the “effect on cytosolic c-myc-SPHK activity” value (c-myc-SPHK) is reported as “stimulated”.

With diacylglycerol the “substrate of hSPHK1” value (hSPHK1 [1]) was “not substrates”.

In the case of phosphatidylinositol, the “substrate of hSPHK1” value (hSPHK1 [1]) is reported as “not substrates”.

B1: hSPHK1 (Homo sapiens) (protein)
chain: MDPAGGPRGVLPRPCRVLVLLNPRGGKGKALQLFRSHVQPLLAEAEISFTLMLTERRNHARELVRSEELGRWDALVVMSGDGLMHEVVNGLMERPDWETAIQKPLCSLPAGSGNALAASLNHYAGYEQVTNEDLLTNCTLLLCRRLLSPMNLLSLHTASGLRLFSVLSLAWGFIADVDLESEKYRRLGEMRFTLGTFLRLAALRTYRGRLAYLPVGRVGSKTPASPVVVQQGPVDAHLVPLEEPVPSHWTVVPDEDFVLVLALLHSHLGSEMFAAPMGRCAAGVMHLFYVRAGVSRAMLLRLFLAMEKGRHMEYECPYLVYVPVVAFRLEPKDGKGVFAVDGELMVSEAVQGQVHPNYFWMVSGCVEPPPSWKPQQMPPPEEPL
notes: to obtain the full-length cDNA of hSPHK1; expressed in transfected cells; host or cells: HEK293
In the case of B1, the Km [3] is reported as 5 µM.
